From ChEMBL document CHEMBL1131016, “Carbocyclic analogues of the potent cytidine deaminase inhibitor 1-(beta-D-ribofuranosyl)-1,2-dihydropyrimidin-2-one (zebularine)” (J Med Chem, 1998) come the findings set out here.

Activity calls are given as the source filed them. The rule behind the calls is not given here.

Experiment [1] deals with T1, Cytidine deaminase (Homo sapiens, UniProt P32320). In words: Compound was tested for its binding affinity against human cytidine deaminase;16-fold less potent than that of zebularine (16.5 uM).
T1 sequence (P32320 whole entry): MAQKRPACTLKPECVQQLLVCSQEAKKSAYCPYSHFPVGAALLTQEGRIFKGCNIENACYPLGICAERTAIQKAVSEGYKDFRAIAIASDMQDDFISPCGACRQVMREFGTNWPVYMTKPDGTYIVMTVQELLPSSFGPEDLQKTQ
Experiment [2] addresses T1, Cytidine deaminase. The experiment is described as follows: Inhibitory concentration of mouse or human Cytidine deaminase; No inhibition.

For `O=c1ncccn1C1CC(CO)[C@@H](O)[C@H]1O` (some centres not stated), the fold less potent than zebularine in experiment [1] amounted to 16. Turning to `O=c1ncccn1[C@H]1[C@H](O)[C@H](O)C2(CO)C[C@H]12` (single isomer, unassigned), in experiment [2], the inhibition entry is “inactive”.
